From PubChem BioAssay AID222 (DTP/NCI, 2004)
Several values for one entry are separate records, joined by “and”; a condition that tells them apart may be missing. Equal entries are not always repeated. Inconclusive results and toxic doses are left out. The calls were made as follows: active = survival T/C of 150% or more; inactive = T/C below 125% in these data.

System: C57BL/6 mice, intracerebral ependymoblastoma, median survival T/C
Assay: NCI In Vivo Anticancer Drug Screen. Data for tumor model Ependymoblastoma (intracerebral) in C57BL/6 mice
Settings: endpoint: median survival time, higher = longer survival
Protocol: The antitumor activity of compounds was measured in mice bearing transplantable tumors. Survival or tumor size were measured and the results are expressed as the measurement made in the treated group (T) divided by the measurement made in the vehicle treated control group (C). The tumor model used in this assay is Ependymoblastoma (intracerebral) in C57BL/6 mice

Measured: T/C

OC(CBr)C(O)C(O)C(O)CBr (stereo not given)
inactive: dose: 8.0 mg/kg/injection, schedule: Q01DX005 (ip), vehicle: saline 101 % of control | dose: 12.0 mg/kg/injection, schedule: Q01DX005 (ip), vehicle: saline 89 % of control | dose: 18.0 mg/kg/injection, schedule: Q01DX005 (ip), vehicle: saline 100 % of control | dose: 27.0 mg/kg/injection, schedule: Q01DX005 (ip), vehicle: saline 95 % of control | dose: 32.0 mg/kg/injection, schedule: Q01DX001 (ip), vehicle: Klucel (hydroxypropylcellulose) (HPC) 108 % of control | dose: 32.0 mg/kg/injection, schedule: Q01DX001 (oral), vehicle: Klucel (hydroxypropylcellulose) (HPC) 96 % of control | dose: 32.0 mg/kg/injection, schedule: Q01DX005 (oral), vehicle: Klucel (hydroxypropylcellulose) (HPC) 97 % of control | dose: 50.0 mg/kg/injection, schedule: Q01DX005 (ip), vehicle: saline 107 % of control | dose: 60.0 mg/kg/injection, schedule: Q01DX005 (ip), vehicle: saline 116 % of control | dose: 64.0 mg/kg/injection, schedule: Q01DX001 (ip), vehicle: Klucel (hydroxypropylcellulose) (HPC) 111 % of control | dose: 64.0 mg/kg/injection, schedule: Q01DX001 (oral), vehicle: Klucel (hydroxypropylcellulose) (HPC) 99 % of control | dose: 64.0 mg/kg/injection, schedule: Q01DX005 (oral), vehicle: Klucel (hydroxypropylcellulose) (HPC) 102 % of control | dose: 100.0 mg/kg/injection, schedule: Q01DX001 (ip), vehicle: Klucel (hydroxypropylcellulose) (HPC) 103 % of control | dose: 100.0 mg/kg/injection, schedule: Q01DX005 (ip), vehicle: saline 92 % of control and 120 % of control | dose: 100.0 mg/kg/injection, schedule: Q#A X002 (ip), vehicle: Klucel (hydroxypropylcellulose) (HPC) 102 % of control | dose: 128.0 mg/kg/injection, schedule: Q01DX001 (ip), vehicle: Klucel (hydroxypropylcellulose) (HPC) 109 % of control | dose: 128.0 mg/kg/injection, schedule: Q01DX001 (oral), vehicle: Klucel (hydroxypropylcellulose) (HPC) 100 % of control | dose: 200.0 mg/kg/injection, schedule: Q01DX001 (ip), vehicle: Klucel (hydroxypropylcellulose) (HPC) 102 % of control and 112 % of control and 115 % of control | dose: 200.0 mg/kg/injection, schedule: Q01DX005 (ip), vehicle: saline 96 % of control and 107 % of control | dose: 200.0 mg/kg/injection, schedule: Q#A X002 (ip), vehicle: Klucel (hydroxypropylcellulose) (HPC) 102 % of control and 106 % of control | dose: 256.0 mg/kg/injection, schedule: Q01DX001 (ip), vehicle: Klucel (hydroxypropylcellulose) (HPC) 122 % of control | dose: 256.0 mg/kg/injection, schedule: Q01DX001 (oral), vehicle: Klucel (hydroxypropylcellulose) (HPC) 101 % of control | dose: 400.0 mg/kg/injection, schedule: Q01DX001 (ip), vehicle: Klucel (hydroxypropylcellulose) (HPC) 105 % of control and 106 % of control | dose: 400.0 mg/kg/injection, schedule: Q#A X002 (ip), vehicle: Klucel (hydroxypropylcellulose) (HPC) 111 % of control | dose: 512.0 mg/kg/injection, schedule: Q01DX001 (ip), vehicle: Klucel (hydroxypropylcellulose) (HPC) 96 % of control | dose: 512.0 mg/kg/injection, schedule: Q01DX001 (oral), vehicle: Klucel (hydroxypropylcellulose) (HPC) 100 % of control | dose: 1024.0 mg/kg/injection, schedule: Q01DX001 (ip), vehicle: Klucel (hydroxypropylcellulose) (HPC) 96 % of control | dose: 1024.0 mg/kg/injection, schedule: Q01DX001 (oral), vehicle: Klucel (hydroxypropylcellulose) (HPC) 100 % of control

CC(=O)CC(c1ccccc1)c1c(O)c2ccccc2oc1=O (stereo not given)
inactive: dose: 0.09 mg/kg/injection, schedule: Q01DX005 (ip), vehicle: saline 93 % of control | dose: 0.18 mg/kg/injection, schedule: Q01DX005 (ip), vehicle: saline 115 % of control | dose: 0.36 mg/kg/injection, schedule: Q01DX005 (ip), vehicle: saline 98 % of control | dose: 1.44 mg/kg/injection, schedule: Q01DX005 (ip), vehicle: saline 87 % of control

COc1cc2cc3c4cc(OC)c(OC)cc4cc[n+]3c(C)c2cc1OC (tested in a mixture with another compound)
inactive: dose: 8.0 mg/kg/injection, schedule: Q01DX001 (ip), vehicle: saline 98 % of control | dose: 16.0 mg/kg/injection, schedule: Q01DX001 (ip), vehicle: saline 91 % of control | dose: 16.0 mg/kg/injection, schedule: Q#A X002 (ip), vehicle: saline 94 % of control | dose: 32.0 mg/kg/injection, schedule: Q01DX001 (ip), vehicle: saline 90 % of control | dose: 32.0 mg/kg/injection, schedule: Q01DX005 (ip), vehicle: Klucel (hydroxypropylcellulose) (HPC) 89 % of control | dose: 32.0 mg/kg/injection, schedule: Q#A X002 (ip), vehicle: saline 97 % of control and 105 % of control | dose: 64.0 mg/kg/injection, schedule: Q01DX001 (oral), vehicle: saline 100 % of control and 104 % of control | dose: 64.0 mg/kg/injection, schedule: Q01DX005 (ip), vehicle: Klucel (hydroxypropylcellulose) (HPC) 103 % of control and 107 % of control | dose: 64.0 mg/kg/injection, schedule: Q#A X002 (ip), vehicle: saline 111 % of control | dose: 128.0 mg/kg/injection, schedule: Q01DX001 (oral), vehicle: saline 100 % of control and 103 % of control | dose: 128.0 mg/kg/injection, schedule: Q01DX005 (ip), vehicle: Klucel (hydroxypropylcellulose) (HPC) 118 % of control and 121 % of control | dose: 128.0 mg/kg/injection, schedule: Q#A X002 (ip), vehicle: saline 103 % of control and 106 % of control | dose: 256.0 mg/kg/injection, schedule: Q01DX001 (ip), vehicle: saline 87 % of control | dose: 256.0 mg/kg/injection, schedule: Q01DX001 (oral), vehicle: saline 88 % of control and 103 % of control | dose: 256.0 mg/kg/injection, schedule: Q01DX005 (ip), vehicle: Klucel (hydroxypropylcellulose) (HPC) 118 % of control | dose: 256.0 mg/kg/injection, schedule: Q#A X002 (ip), vehicle: saline 87 % of control and 98 % of control | dose: 512.0 mg/kg/injection, schedule: Q01DX001 (oral), vehicle: saline 100 % of control and 102 % of control | dose: 1024.0 mg/kg/injection, schedule: Q01DX001 (oral), vehicle: saline 100 % of control and 107 % of control
